Assays:
[1] = system: Schaffer collateral-CA1 pyramidal cell synapse; assay: LTP induced by two 100 Hz trains in hippocampal slices; assay type: cell-based, mouse; conditions: for LTP induced by two 100 Hz trains in mutant mice after pretreatment: Tet-CN279 mutant slices, 750 nM calyculin A for 30 minutes
Excerpt: In an attempt to isolate, in still another way, the novel intermediate phase in which PKA acts to suppress a phosphatase cascade we varied the number of tetanic trains of stimulation. One of the characteristics that distinguishes E-LTP from L-LTP is that weak stimuli such as a single 100 Hz train elicit E-LTP but not L-LTP. In contrast, to reliably induce L-LTP, 3-4 repeated 100 Hz trains are required. We therefore sought to determine if an intermediate phase of LTP could also be distinguished from these phases based on the strength of stimulus required. We elicited LTP with two 100 Hz trains spaced by 20 seconds. This protocol elicited LTP that was more robust than that elicited by one 100 Hz train, but less maintained than that elicited by four trains (FIG. 14C). In contrast to LTP elicited by a single 100 Hz train which is not affected by inhibitors of PKA (Huang et al., 1996), LTP elicited by two trains was partially sensitive to the PKA inhibitor KT5720 (no drug: […]; 1 μM KT5720: 153±5% of baseline at 1 hr, 5 slices, 4 mice; […]; FIG. 14D). […] These two types of experiments reveal a novel intermediate phase of LTP (I-LTP) exists that requires 1) a stronger stimulus than E-LTP, and 2) the activation of PKA.
Transverse hippocampal slices were prepared as previously described (Huang and Kandel, 1994). Mice of either sex, aged 7-18 weeks were used. In all appropriate cases, the experimenter was blinded to animal genotype. Hippocampi was rapidly unilaterally dissected out on ice, and […] slices were cut on a McIlwain tissue chopper and placed in oxygenated ACSF (NaCl, 124 mM, KCl, 4.4 mM; CaCl2, 2.5 mM; MgSO4, 1.3 mM; NaH2PO4, 1 mM; glucose, 10 mM; and NaHCO3 26 mM). The slices were then transferred to an interface chamber where they were subfused with oxygenated ACSF (1-2 ml/min) and allowed to equilibrate for 60-90 min at 28° C.
For extracellular recordings, ACSF-filled glass electrodes (1-3 MΩ) were positioned in the stratum radiatum of area CA1. A bipolar nichrome stimulating electrode was also placed in stratum radiatum for stimulation of Schaffer collateral afferents (0.05 ms duration). Unless otherwise mentioned, test stimuli were applied at a frequency of 1 per minute (0.017 Hz), and at a stimulus intensity that elicits a fEPSP slope that was 35% of the maximum. Experiments in which a significant change in the fiber volley amplitude occurred, were discarded. Drugs were applied through the perfusion medium. DL-AP5, calyculin A, KT5720 and R(+)-6-Bromo-[…]-3-allyl-1-phenyl-2,3,4-tetrahydro-1H-3-benzazepine (6-Br-APB) were purchased from Research Biochemicals International, Natick, Mass. DL-AP5 was dissolved directly into ACSF prior to use. Calyculin A, KT5720 and 6-Br-APB were dissolved as 100× stocks in DMSO and diluted into ACSF just before use. Sp-cAMPS (Biolog, La Jolla, Calif.) was dissolved directly in ACSF.

[2] = system: Schaffer collateral-CA1 pyramidal cell synapse; assay type: cell-based, mouse; conditions: wild-type slices
CaMKII = CaMKII enzyme activity in striatum of B21 double transgenic mice on doxycycline; assay type: in vivo, mouse
Experimental: In double transgenic mice, a high level of expression of the CaMKII-Asp mRNA was obtained (FIGS. 5B and 7A-D). To determine the effect of this expression on enzyme activity. CaMKII activity was measured in the striatum of the B21 line of mice (Table 1).
Brains were removed and the striatum was dissected and immediately homogenized in 20 mM tris-HCl (pH 7.5), 0.5 mM EGTA, 0.5 mM EDTA, 2 mM leupeptin, 0.4 mM dithiothreitol, 0.1 mM phenylmethysulfonyl flouride, 0.4 mM molybdate, and 10 mM sodium pyrophosphate. CaMKII enzyme activity was determined as described (Mayford et al., 1995). B21+Dox animals received doxycycline (1 mg/ml) plus 5% sucrose in the drinking water for 3 to 5 weeks. B21+Dox withdrawal animals received doxycycline (1 mg/ml) for 3 to 5 weeks and were then switched to normal water for 6 weeks. The number of mice is given in parentheses.

[3] = system: Schaffer collateral LTP in CA1 of hippocampal slices; assay: 10-Hz LTP in CA1 of hippocampal slices (field EPSP slope); assay type: cell-based, mouse; conditions: doxycycline 1 mg/ml drinking water 2 to 3 weeks, 1 ng/ml in perfusate
wild-type mice = assay: Effect of doxycycline itself on memory of wild-type mice; assay type: in vivo, mouse
[4] = system: Schaffer collateral-CA1 synapse; assay: Chemically induced slow-onset potentiation (L-LTP) in hippocampal slices; assay type: cell-based, mouse
Experimental: FIG. 13C) and FIG. 13D): Drug was added at the time indicated in both panels at a concentration of 100 µM. Each point in the time courses represents the mean fEPSP slope±SEM normalized to the average of the predrug fEPSP slope. Insets show representative fEPSP traces just before drug addition and 3 hours after.
Is this reduction due to a direct effect on downstream components of L-LTP, or is it due to a failure to fully initiate L-LTP? To begin to explore this question we examined L-LTP evoked by pharmacological activation of the […], which bypasses tetanic stimulation in area CA1. In addition to being evoked through multiple high frequency tetani to the Schaffer collaterals, L-LTP in area CA1 can be induced chemically through either application of D1/D5 dopamine receptor agonists or direct activators of adenylyl cyclase and PKA. In wild-type slices, application of agonists of D1/D5 dopamine receptors or the PKA agonist Sp-cAMPS, result in a slow-onset potentiation of synaptic transmission that is sensitive to protein and RNA-synthesis inhibitors, and mutually occlusive with L-LTP elicited by multiple high frequency trains (Huang and Kandel, 1994; Huang et al., 1994; Bolshakov et al., 1997). If overexpression of calcineurin directly affects the machinery necessary to produce the late phase, pharmacologically-induced L-LTP, that bypasses E- and I-LTP, would be impaired in CN98-mutant mice, as is the case with the late phase deficit in tPA-knockout mice (Huang et al., 1996a).
We tested the ability of both the D1/D5 receptor agonist 6-Br-APB (100 μM) and the PKA activator Sp-cAMPs (100 μM) to elicit slow-onset potentiation at the Schaffer collateral-CA1 synapse in CN98 mice.
For extracellular recordings, ACSF-filled glass electrodes (1-3 MΩ) were positioned in the stratum radiatum of area CA1. A bipolar nichrome stimulating electrode was also placed in stratum radiatum for stimulation of Schaffer collateral afferents (0.05 ms duration). […]

NMDA receptors = assay: NMDA-mediated synaptic field potentials in hippocampal slices (DNQX, reduced Mg2+); assay type: cell-based, mouse
calcineurin = assay: Phosphatase assay in hippocampal extracts; assay type: biochemical, mouse
Experimental: Phosphatase assays were performed according to Hubbard and Klee (1991). Briefly, mice were injected with 5 ml/kg of pentobarbital and decapitated. Hippocampi were dissected out, homogenized in 2 mM EDTA (pH 8), 250 mM sucrose, 0.1% Bmercaptoethanol and centrifuged. Supernatants were diluted in 40 mM Tris-HCl (pH 8), 0.1M NaCl, 0.04 mg/ml bovine serum albumin, 1 mM DTT, […] (Buffer 1) and incubated at 30° C. for 1 min in Buffer 1 containing 1 mM of the peptide [γ^32P]-RII subunit of cyclic AMP-dependent protein kinase (PKA) and either 0.1 mM calmodulin (Sigma) and 0.66 mM Ca^2+ or 0.33 mM EGTA (pH 7.5). The peptide ^97[Ala]-RII (Peninsula Labs) was labeled with 0.3 roM [γ^32P]ATP (NEN) using 4 mg catalytic subunit of PKA (Fluka). The reaction was stopped with 5% TCA in 0.1 M KH2P04 and the enzyme activity was calculated as previously described (Klee et al., 1983) and is expressed in nmol Pi release/min/mg protein. The protein concentration was determined using the bicinchroninic acid protein assay kit (Sigma). All samples were performed in triplicate.
Phosphatase assays were performed as described in Winder et al., 1997. Briefly, mice were injected with 5 ml/kg of pentobarbital and decapitated. Hippocampi were dissected out, homogenized in 2 mM EDTA (pH 8), 250 mM sucrose, 0.1 k β-mercaptoethanol. Supernatants were incubated at 30° C. for 1 min in presence of the […] [Ala97]-RII peptide and either 0.1 mM calmodulin and 0.66 mM Ca^2+ or 0.33 mM EGTA. The reaction was stopped and the enzyme activity calculated previously as described (Klee et al., 1983; 1987). The activity was expressed in nmol Pi released/min/mg protein. The protein concentration was determined using the bicinchroninic acid protein assay kit (Sigma). All samples were performed in triplicate.

[5] = Dox withdrawal: doxycycline 1 mg/ml 3 to 5 weeks, then normal water 6 weeks
[6] = doxycycline 1 mg/ml plus 5% sucrose in drinking water 3 to 5 weeks

COc1ccc(C[C@H]2NC[C@H](O)[C@H]2OC(C)=O)cc1 [anisomycin]
sensitivity of LTP elicited by two trains to preincubation with the drug ([1]; wild-type slices, anisomycin 30 μM): completely insensitive
LTP induced by four trains ([2]; anisomycin 30 μM): reduced

C[C@H]1c2cccc(O)c2C(=O)C2=C(O)[C@]3(O)C(=O)C(C(N)=O)=C(O)[C@@H](N(C)C)[C@@H]3[C@@H](O)[C@@H]21 [doxycycline]
CaMKII Activity Ca^2+-independent (%) (CaMKII; [5]): 5.70 ± 0.43%
CaMKII Activity With Ca^2+ (CaMKII; [5]): 14.2 ± 0.7 pmol/min/µg
CaMKII Activity Without Ca^2+ (CaMKII; [5]): 0.80 ± 0.03(3) pmol min^−1 μg^−1
CaMKII Activity Ca^2+-independent (%) (CaMKII; [6]): 1.22 ± 0.03%
CaMKII Activity With Ca^2+ (CaMKII; [6]): 12.9 ± 1.5 pmol/min/µg
CaMKII Activity Without Ca^2+ (CaMKII; [6]): 0.16 ± 0.04(5) pmol min^−1 μg^−1
field EPSP slope as percentage of pre-tetanus baseline after 10-Hz tetanus ([3]; B13 double transgenic mice): 132±10%
field EPSP slope as percentage of pre-tetanus baseline after 10-Hz tetanus ([3]; wild-type mice): 122±6%
memory (wild-type mice; doxycycline treatment in the adult animal): did not affect memory
adult spatial memory and memory for fear conditioning (wild-type mice; wild-type mice, doxycycline 1 mg/ml during development): impaired
fEPSP slope, % of baseline at 1 hr after two trains ([1]; Tet-CN279 on doxycycline (mutant sentence), 1 mg/ml in water supply, 1 ng/ml in ACSF): 184±18%
fEPSP slope, % of baseline at 1 hr after two trains ([1]; printed 'Tet-CN279 mutant mice on doxycycline' in the sentence on wild-type mice on or off doxycycline): 191±18%

Nc1ncnc2c1ncn2[C@@H]1O[C@@H]2COP(O)(=S)O[C@H]2[C@H]1O (stereo partly drawn) [Sp-cAMPS]
fEPSP slope, % of baseline at 3 hr after drug application ([4]; CN98 wild-type, printed as Sp-cAMPS application, 100 μM): 204±40%
fEPSP slope, % of baseline at 3 hr after drug application ([4]; wild-type, Sp-cAMPS 100 μM): 124±13%

C=CCN1CCc2c(cc(O)c(O)c2Br)[C@@H](c2ccccc2)C1 [6-Br-APB, R(+)-6-Bromo-7,0-dihydroxy-3-allyl-1-phenyl-2,3,4-tetrahydro-1H-3-benzazepine]
fEPSP slope, % of baseline at 3 hr after drug application ([4]; CN98 mutant, 6-Br-APB 100 μM): 181±41%

NC(CCCP(=O)(O)O)C(=O)O (racemic) [DL-A95, DL-AP5]
NMDA-mediated field potentials in 10 μM DNQX and reduced Mg2+ (50 μM) (NMDA receptors): completely antagonized

CCCCCCOC(=O)[C@]1(O)C[C@@H]2O[C@@]1(C)n1c3ccccc3c3c4c(c5c6ccccc6n2c5c31)C(=O)NC4 [KT5720]
fEPSP slope, % of baseline at 1 hr after two 100 Hz trains ([1]; wild-type slices, 1 μM KT5720): 153±5%
decay of LTP induced by four 100 Hz trains, compared with anisomycin ([2]; KT5720 1 μM, 20 minute pretreatment, anisomycin 30 μM one hour prior to tetanus): much more rapid decay

O=C(O)CN(CCOCCOCCN(CC(=O)O)CC(=O)O)CC(=O)O [EGTA]
phosphatase enzyme activity in hippocampal extracts (calcineurin; CN98 mutant + EGTA): 0.32±0.14 nmol Pi/min/mg
phosphatase activity (calcineurin; CN98 mutant and wild-type hippocampal extracts in the presence of EGTA): virtually abolished
phosphatase enzyme activity in hippocampal extracts (calcineurin; CN98 wild-type + EGTA): 0.427±0.16 nmol Pi/min/mg
phosphatase enzyme activity in hippocampal extracts (calcineurin; mutant (Tet-CN279+Tet-CN273) + EGTA): 0.287±0.17 nmol Pi/min/mg
phosphatase enzyme activity in hippocampal extracts (calcineurin; wild-type (Tet-CN279+Tet-CN273) + EGTA): 0.432 ± 0.11 nmol Pi/min/mg

COC[C@@H]([C@H](O)[C@H](O)C(=O)NCC[C@H](C)c1nc(/C=C/C[C@@H]2O[C@]3(C[C@@H](O)[C@@H]2C)O[C@H]([C@H](C[C@H](O)[C@H](C)[C@H](O)[C@H](C)/C=C(C)/C(C)=C/C=C/C(C)=C\C#N)OC)[C@H](OP(=O)(O)O)C3(C)C)co1)N(C)C [calyculin A]
LTP induced by two 100 Hz trains in mutant mice after pretreatment [1]: indistinguishable from that seen in wild-type
LTP induced by two 100 Hz trains in mutant mice after pretreatment ([1]; listed as Calyculin A): rescues the deficit

— patent US8822216B2, “DNA regulatory element for the expression of transgenes in neurons of a subject and uses thereof” (priority 1997, dated 2014)
